Here are results for 87 compounds from PubChem BioAssay AID1645865 (Buhrlage Lab, Dana-Farber Cancer Institute and Novartis …, 2021).

pIC50: −log10 of the molar value. Calls of active or inactive are those of the source.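 Rule for the calls: active = maximal inhibition of the USP30 enzyme reaching 30% or more across the dose series; inactive = the rest.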

The assay addresses Ubiquitin carboxyl-terminal hydrolase 30 (Homo sapiens) (UniProt Q70CQ3). Nature of the assay: ubiquitin-specific protease 30 DUB inhibitors, concentration-effect, biochemical, validation of primary actives (AID 1645865). To be noted: purified USP30, Ub-rhodamine cleavage, fluorescence, 2 h.

Chain of Ubiquitin carboxyl-terminal hydrolase 30 (Homo sapiens) (Q70CQ3 whole entry, looked up): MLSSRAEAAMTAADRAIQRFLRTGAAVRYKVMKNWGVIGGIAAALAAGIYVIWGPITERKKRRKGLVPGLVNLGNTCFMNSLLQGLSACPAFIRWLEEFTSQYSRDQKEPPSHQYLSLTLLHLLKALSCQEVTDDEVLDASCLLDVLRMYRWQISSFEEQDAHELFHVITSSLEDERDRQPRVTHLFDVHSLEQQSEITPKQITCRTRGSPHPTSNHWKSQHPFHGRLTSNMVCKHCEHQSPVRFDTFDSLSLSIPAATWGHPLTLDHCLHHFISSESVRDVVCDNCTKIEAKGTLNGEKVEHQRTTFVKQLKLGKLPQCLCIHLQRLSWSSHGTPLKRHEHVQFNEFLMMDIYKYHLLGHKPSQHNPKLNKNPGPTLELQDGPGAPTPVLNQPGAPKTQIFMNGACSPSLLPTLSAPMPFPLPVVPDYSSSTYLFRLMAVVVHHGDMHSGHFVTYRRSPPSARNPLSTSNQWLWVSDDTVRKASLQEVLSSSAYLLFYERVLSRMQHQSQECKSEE

In the case of `Cc1ccc2nc(CNC(=O)c3ccccc3-c3nc(-c4ccc(F)cc4)no3)[nH]c2c1`, the pIC50 – broadly, the negative decadic logarithm of the IC50, by convention in mol/L – was 4.47.

For the compound `COc1ccc(CN2CCCC23CCCN(C(=O)CCc2cccnc2)C3)cc1F` (configuration not stated), the pIC50 is 4.48.

With `O=C(c1cc(-c2ccc(Cl)cc2)n[nH]1)N1CCN(C(=O)c2ccco2)CC1`, the pIC50 is 4.50.

Take `COc1ccc(NC(=O)c2sc(N3CCOCC3)nc2-c2ccccc2)c(OC)c1`: the pIC50 was 4.72.

As to `O=C(Nc1ccc2sccc2c1)c1ccc(F)cc1`, the pIC50 is 4.45.

Consider `O=C1NC(=O)/C(=C/c2ccc(OC(=O)c3ccc(Cl)cc3Cl)cc2)N1`, for which the pIC50 was 5.62.

In the case of `CCCc1nc2sc3c(NCCCN4CCOCC4)ncnc3c2c2c1CCC2`, the IC50 (in general, the midpoint of a concentration-inhibition curve) is > 50 µM (inactive).

Regarding `O=C1COc2ccc(NC(=O)c3cnn(Cc4ccccc4)c3)cc2N1`, the pIC50 is 4.38.

Turning to `Cc1ccc(Nc2nc(O)c(CC(=O)Nc3ccccc3C)s2)cc1C`, the pIC50 is 4.76.

`Cc1ccc(-c2nnc(-n3ncc(C#N)c3N)c3ccccc23)cc1C`: the IC50 is > 50 µM (inactive).

As for `CC(=O)c1ccccc1NC(=O)COc1ccc(-c2ccc(C#N)cc2)cc1`, the pIC50 was 5.60.

Regarding `COC(=O)c1ccc(Cn2cnc3ccc(Br)cc3c2=O)o1`, the IC50 was > 50 µM (inactive).

Consider `Cc1ccc(NC(=O)c2cnc(N3CCOCC3)nc2)cc1F`, for which the pIC50 is 4.56.

Turning to `CC(=O)Nc1ccc(O)c(-c2nc3cc(C)ccc3o2)c1`, the pIC50 was 5.40.

As to `Cc1ccc2[nH]c(=O)c(-c3nc4ccc(C)cn4c3NCc3ccc(F)cc3)cc2c1`, the pIC50 is 5.68.

With `COc1ccc(CCNC(=O)COc2ncnc3oc(C)c(C)c23)cc1OC`, the IC50 is > 50 µM (inactive).

Regarding `COc1cccc(NC(=O)c2ccc3noc(-c4ccc(Cl)cc4)c3c2)c1`, the negative-log IC50 (pIC50) is 4.49.

In the case of `COc1cc(/C=C/C(=O)OCC(=O)Nc2ccc([N+](=O)[O-])cc2OC)ccc1O`, the pIC50 is 4.55.

In the case of `COC1/C=C/OC2(C)Oc3c(C)c(O)c4c(c3C2=O)C(=O)C=C(NC(=O)/C(C)=C\C=C\C(C)C(O)C(C)C(O)C(C)C(OC(C)=O)C1C)C4=O` (configuration not stated), the IC50 was > 50 µM (inactive).

In the case of `O=C(COC(=O)c1n[nH]c2ccccc12)Nc1ccc(N2CCCCC2)cc1`, the pIC50 was 4.46.

For the compound `COc1ccccc1S(=O)(=O)N1CC[C@@H]2CN(C)[C@@H]2C1`, the pIC50 was 4.49.

For the compound `CC1(C)CC(=O)C2=C(C1)Nc1ccccc1N(C(=O)C(F)(F)F)C2c1cccs1` (configuration not stated), the IC50 is > 50 µM (inactive).

As to `Cc1cccc(-n2ccnc(SCC(=O)Nc3ccc(Cl)cc3F)c2=O)c1`, the pIC50 was 5.62.

Consider `Cc1noc(NS(=O)(=O)c2ccc(NC(=O)CSc3ccc4ccccc4c3)cc2)c1C`, for which the IC50 is > 50 µM (inactive).

In the case of `Cc1ccc(-n2c(=O)c3ccccc3n(Cc3c(F)cccc3Cl)c2=O)cc1`, the pIC50 is 5.65.

Take `CO[C@H]1CC[C@H](O)c2c1oc1c3c4c(c(O)c1c2=O)-c1c(cc2c(Cl)c(C)n(N)c(=O)c2c1O)C[C@@H]4OCO3`: the pIC50 is 4.32.

In the case of `O=C(COC(=O)CCc1ccc(S(=O)(=O)N2CCOCC2)cc1)Nc1ccc2c(c1)OCCO2`, the IC50 is > 50 µM (inactive).

`COc1ccc(-c2nc(CNC(=O)COc3ccc(C)cc3)cs2)cc1`: the pIC50 was 4.44.

As to `CCOc1ccc(CC(=O)Nc2ccc(-c3cn4cccnc4n3)cc2)cc1`, the IC50 was > 50 µM (inactive).

As for `COc1cc(O)c2c(O)c3c(cc2c1)CC(C)OC3=O` (configuration not stated), the IC50 was > 50 µM (inactive).

As to `O=C(CSc1nncc2ccccc12)Nc1ccc2c(c1)OCO2`, the IC50 was > 50 µM (inactive).

Take `C/C=C(\Cl)C1=CC(=O)[C@]23C[C@H]2[C@@]2(C)CO[C@@]1(O)[C@@]3(O)O2`: the IC50 was > 50 µM (inactive).

For `COC(=O)c1ccc(C(=O)Nc2cc3ccccc3cc2NC(=O)c2ccc(C(=O)OC)cc2)cc1`, the negative-log IC50 (pIC50) is 6.07.

`COc1ccc2nc3c(cc2c1)c(=O)n(C)c1c3c(=O)n(-c2ccccc2)c(=O)n1-c1ccccc1`: the IC50 was > 50 µM (inactive).

With `COc1cccc2cccc(O)c12`, the IC50 was > 50 µM (inactive).

For the compound `COc1cccc(N2CCN(c3ccc4nnc(CCC(=O)N5CCc6ccccc6C5)n4n3)CC2)c1`, the pIC50 was 4.41.

For `CCCCCCCCCC(CCCCCCCCCC(=O)O)O[C@H]1O[C@@H](COC(C)=O)[C@H](O)[C@@H](O)[C@H]1OC(=O)CC(=O)O` (some centres not stated), the pIC50 is 4.66.

Take `O=C(CN1C=NC2=NS(=O)(=O)c3ccccc3N21)Nc1cc(F)ccc1F`: the pIC50 is 4.44.

Take `CC(C)(C)c1ccc(Cn2nnc3c(=O)[nH]c(C4CCN(S(=O)(=O)c5ccc(S(=O)(=O)NC6CC6)cc5)CC4)nc32)cc1`: the pIC50 is 4.31.

Turning to `Cc1cc(=O)n(CC(=O)Nc2ccccc2C)c(Nc2ccc(F)cc2)n1`, the pIC50 is 4.95.

Regarding `CSc1ccccc1NC(=O)c1ccc(-n2cccn2)nn1`, the pIC50 was 5.63.

On to `CC1OC2CC(O)C1(O)C1=C2C(O)=C(C(N)=O)C(=N)C1=O` (configuration not stated), for which the IC50 is > 50 µM (inactive).

In the case of `CCN(CC(=O)Nc1cc(C)on1)c1cccc2ccccc12`, the IC50 was > 50 µM (inactive).

Take `Cc1ccnc(NC(=O)c2ccn(COc3ccc(Cl)cc3)n2)c1`: the pIC50 was 4.64.

Regarding `CCc1cc(=O)n(CC(=O)Nc2cc(C)ccc2OC)c(N2CCOCC2)n1`, the negative logarithm of the IC50 (pIC50) is 4.58.

`O=C(c1cnccn1)N1CCc2[nH]c3ccc(F)cc3c2C1`: the IC50 was > 50 µM (inactive).

For `COc1cc(OC)cc(-n2c(=O)c3sccc3n(CC(=O)Nc3ccc(C)cc3)c2=O)c1`, the pIC50 was 5.28.

As to `N#C/C(=C\c1ccc(OCc2cccc(C(=O)O)c2)cc1)c1ccc(F)cc1`, the IC50 was > 50 µM (inactive).

As for `COc1cccc(-c2cc(=O)[nH]c(Nc3nc(C)c4ccccc4n3)n2)c1`, the pIC50 was 4.45.

`Cc1ccc(-c2ccc(N3CCOCC3)nn2)cc1S(=O)(=O)N1CCOCC1`: the IC50 is > 50 µM (inactive).

With `N#C/C(=C\c1ccc(-c2cc(Cl)ccc2Cl)o1)c1nnc2n1CCCCC2`, the IC50 is > 50 µM (inactive).

As for `NC(=O)CCC(=O)N[C@H]1C[C@H]2CN(Cc3ccccc3)c3ccccc3CN2C1`, the IC50 is > 50 µM (inactive).

Consider `O=C(Nc1cccn(Cc2c(Cl)cccc2Cl)c1=O)c1ccccc1[N+](=O)[O-]`, for which the IC50 is > 50 µM (inactive).

On to `COCCCN1CCS(=O)(=O)c2c(Cl)c(F)nc(Oc3ccccc3F)c21`, for which the IC50 was > 50 µM (inactive).

Consider `COc1ccc(C(=O)Nc2cc(F)c3nc(N4CCOCC4)ccc3c2)c(OC)c1`, for which the IC50 is > 50 µM (inactive).

For `CC1(C)Cc2c(c(-c3ccco3)nc3sc4c(SCCCc5ccccc5)ncnc4c23)CO1`, the IC50 was > 50 µM (inactive).

Take `Cc1cc(-c2cnc(N(C)C)nc2-c2ccc(CNC(=O)Cc3ccc(F)cc3)cc2)on1`: the IC50 is > 50 µM (inactive).

In the case of `Cc1cccc(COc2ccc(C3SCC(=O)Nc4n[nH]c(C)c43)cc2)c1` (configuration not stated), the pIC50 was 5.09.

As for `CC1(C)CC2CC(C)(CN2Cc2c(O)ccc3ccccc23)C1` (configuration not stated), the IC50 was > 50 µM (inactive).

Turning to `O=C(CSc1nnc2n1CCCCC2)Nc1ccc2[nH]c(=O)[nH]c2c1`, the IC50 is > 50 µM (inactive).

With `CC(C)c1ccc(NC(=O)c2cc3ncc(Br)cn3n2)cc1`, the IC50 is > 50 µM (inactive).

Take `COc1cccc(Cn2nc3n(CC(C)C)c(=O)c4ccc(C(=O)NCC(C)C)cc4n3c2=O)c1`: the pIC50 was 5.63.

Turning to `Cn1c(=O)/c(=C/c2ccccc2)[nH]c(=O)/c1=C/c1ccccc1`, the pIC50 is 4.84.

With `COc1ccc(NCc2nc3ccccc3n2Cc2ccccc2)cc1`, the IC50 was > 50 µM (inactive).

For the compound `Cc1cc(O)cc2cc3c(c(O)c12)C(=O)CCC3O` (configuration not stated), the IC50 is > 50 µM (inactive).

For `O=C(CSc1nc2cc(S(=O)(=O)Nc3ccccc3Cl)ccc2o1)Nc1ccc(N2CCOCC2)cc1`, the pIC50 is 4.30.

With `Cc1cc(C)c2cc(CN(CCc3ccccc3)C(=O)Nc3ccccc3)c(=O)[nH]c2c1`, the IC50 was > 50 µM (inactive).

For the compound `CN1C(=O)COc2ccc(NC(=O)c3cc(-c4ccccc4)on3)cc21`, the pIC50 was 4.85.

Take `CC1CCN(S(=O)(=O)c2ccc(C(=O)Nc3ccc(S(N)(=O)=O)cc3)cc2)CC1`: the pIC50 is 4.53.

With `CCOC(=O)c1ccc(NC(=O)c2cnc(N3CCOCC3)nc2)cc1`, the IC50 was > 50 µM (inactive).

With `N=C1C(c2nc3ccccc3s2)=C(O)CN1Cc1ccc(F)cc1`, the IC50 was > 50 µM (inactive).

Regarding `CC(=O)Nc1ccc(Cc2nc(-c3ccc4c(c3)nc(C)c(=O)n4C3CCCC3)no2)cc1`, the IC50 is > 50 µM (inactive).

In the case of `O=C(COc1cccc2ccc(N3CCC(Cc4ccccc4)CC3)nc12)NCc1ccc(F)cc1`, the pIC50 was 4.64.

As to `COc1ccc(C(=O)Nc2nc(-c3ccc4c(c3)NC(=O)CO4)c(C)s2)cc1OC`, the pIC50 was 5.77.

Take `COCCCn1c(SCC(=O)Nc2ccccc2C(=O)OC)nc2ccccc2c1=O`: the negative logarithm of the IC50 (pIC50) was 4.59.

As for `O=C(CCSc1ccc(Cl)cc1)c1cccs1`, the negative-log IC50 (pIC50) was 4.69.

For the compound `Cn1c(SCc2ccccc2)nnc1-c1csc(-c2ccccc2)n1`, the negative logarithm of the IC50 (pIC50) was 4.65.

`Cc1ccc(C(=O)Nc2ccc3c(c2)C(=O)N(C)c2ccccc2O3)cc1C`: the IC50 was > 50 µM (inactive).

For `COC1=C(C2=C(OC)C(=O)c3cc4c(c(O)c3C2=O)C(=O)OC(C)C4)C(=O)c2c(cc3c(c2O)C(=O)OC(C)C3)C1=O` (configuration not stated), the IC50 is > 50 µM (inactive).

For the compound `Cc1c(Cl)cccc1NC(=O)Cn1ccc2ccccc2c1=O`, the pIC50 is 5.52.

Consider `NS(=O)(=O)c1cccc(NC(=O)CN2CCCc3ccccc32)c1`, for which the IC50 was > 50 µM (inactive).

On to `COc1ccc(-c2nc(Cn3nnc(C(=O)Nc4ccc(C)cc4C)c3N)c(C)o2)cc1`, for which the IC50 is > 5 µM (inactive).

As for `O=C(Nc1cc(F)ccc1F)c1ccn(COc2ccc(F)c(Cl)c2)n1`, the pIC50 was 4.66.

For the compound `COc1ccc(-c2nc(-c3nnn(Cc4ccc(F)cc4)c3C)no2)c(OC)c1`, the pIC50 was 5.05.

In the case of `O=C(Nc1nnc2n1CCCS2)c1cc2ccccc2o1`, the IC50 is > 50 µM (inactive).

For `O=C(Nc1ccc(F)cc1F)c1csc(-c2ccccc2)n1`, the pIC50 was 4.65.

Consider `CC(OC(=O)c1ccc2c(c1)OCCO2)C(=O)NCC1CCCCC1` (configuration not stated), for which the pIC50 was 4.50.
